The nature of data set [1]: Solubility studies for isotretinoin using non-aqueous solvents. It counts as physicochemical. The note with it: organic solvent or mixture. On the procedure:
Solubility studies for isotretinoin were carried out using non-aqueous solvents as mentioned in table 1.

The conditions of data set [2]: oral; patients with severe acne; cited from earlier work.
For data set [3] the following is noted: cited from earlier work.

In brackets after ≈: the same amount, converted by molar mass.

For the compound `CC1=C(/C=C/C(C)=C/C=C/C(C)=C\C(=O)O)C(C)(C)CCC1` [isotretinoin, (2Z,4E,6E,8E)-3,7-dimethyl-9-(2,6,6-trimethylcyclohex-1-en-1-yl)nona-2,4,6,8-tetraenoic acid], the solubility (as a rule, how much of the substance goes into solution per volume) in data set [1] (solvent Acetone) was 30 mg/mL (≈ 99.9 mM); in data set [1] (solvent Dichloromethane), 12 mg/mL (≈ 39.9 mM); in data set [1] (solvent Ethanol), 10 mg/mL (≈ 33.3 mM); in data set [1] (solvent Isopropyl alcohol), 12 mg/mL (≈ 39.9 mM); in data set [1] (solvent Methanol), 10 mg/mL (≈ 33.3 mM). In addition, the “long-term remission, share of patients” value in data set [2] is listed as “about 80%”. The water solubility entry in data set [3] is “very low water solubility”.

The record behind these values is patent US10517846B2, “Pharmaceutical compositions for treating acne” (Dr. Reddy's Laboratories Ltd., priority 2016, dated 2019).
